Counter-ions that a name gives are not always drawn.
Tests used:
[1] = literature test; cited from earlier work
[2] = literature test; cited from earlier work; remark: listed apart in the source
[3] = biological target: T1, MAO A (Rattus norvegicus, UniProt P21396); experiment: MAO A inhibition in dilute rat brain homogenate (14C substrate, 20 min at 37° C); assay type: biochemical; details: 14C-phenylethylamine or 14C-tryptamine 0.4 μmol/l, logit-log regression
T1 construct: determined in dilute rat brain homogenate; from tissue; host or cells: rat brain homogenate
T1 sequence (P21396 1-526): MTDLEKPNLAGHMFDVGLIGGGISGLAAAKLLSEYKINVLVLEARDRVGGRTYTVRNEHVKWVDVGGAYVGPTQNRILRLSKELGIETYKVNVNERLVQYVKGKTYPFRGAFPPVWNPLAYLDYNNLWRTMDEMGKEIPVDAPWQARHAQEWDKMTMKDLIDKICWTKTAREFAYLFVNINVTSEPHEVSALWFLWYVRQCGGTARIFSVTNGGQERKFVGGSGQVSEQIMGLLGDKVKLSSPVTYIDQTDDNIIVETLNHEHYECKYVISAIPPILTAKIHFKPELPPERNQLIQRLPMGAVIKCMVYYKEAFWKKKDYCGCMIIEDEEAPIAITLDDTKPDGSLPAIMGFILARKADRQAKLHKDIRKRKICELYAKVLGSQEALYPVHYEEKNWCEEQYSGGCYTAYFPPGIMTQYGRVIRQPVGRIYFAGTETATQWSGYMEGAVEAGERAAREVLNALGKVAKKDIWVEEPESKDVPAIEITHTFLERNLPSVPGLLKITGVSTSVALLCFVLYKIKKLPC
Method: (§1) The MAO-inhibiting activity of the novel compounds can be determined using standard methods. […] The mixture was incubated for 20 minutes at 37° C.
(§2) The blank value was determined in similar mixtures with an incubation time of t=0 min.
(§3) From the inhibitory values determined at the various inhibitor concentrations against a control, the mean inhibitory concentration (IC50) was calculated by linear regression following logit-log transformation.

[4] = biological target: T2, MAO B (Rattus norvegicus, UniProt P19643); experiment: MAO B inhibition in dilute rat brain homogenate (14C substrate, 20 min at 37° C); assay type: biochemical; details: for IC50 ratio MAO A / MAO B: quotient of IC50 MAO A and IC50 MAO B (selectivity for MAO B), 20 min; for IC50: rat brain homogenate, 14C-phenylethylamine or 14C-tryptamine 0.4 μmol/l, 20 minutes at 37° C, logit-log regression
T2 construct: determined in dilute rat brain homogenate; from tissue; host or cells: rat brain homogenate
T2 sequence (P19643 1-520): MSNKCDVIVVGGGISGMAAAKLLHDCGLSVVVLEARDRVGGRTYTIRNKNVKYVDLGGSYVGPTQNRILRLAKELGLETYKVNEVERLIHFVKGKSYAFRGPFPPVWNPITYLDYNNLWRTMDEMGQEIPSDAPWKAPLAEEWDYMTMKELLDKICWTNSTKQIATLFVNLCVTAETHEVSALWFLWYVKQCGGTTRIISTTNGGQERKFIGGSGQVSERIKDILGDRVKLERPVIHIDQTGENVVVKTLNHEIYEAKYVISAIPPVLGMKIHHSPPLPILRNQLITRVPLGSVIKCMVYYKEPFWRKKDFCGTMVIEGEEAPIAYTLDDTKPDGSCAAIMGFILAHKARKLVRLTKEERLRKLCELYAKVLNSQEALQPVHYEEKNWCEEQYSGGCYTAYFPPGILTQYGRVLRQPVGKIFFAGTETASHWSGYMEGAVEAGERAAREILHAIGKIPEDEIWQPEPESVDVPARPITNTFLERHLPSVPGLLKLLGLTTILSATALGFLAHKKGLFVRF
Method: as §1, §2, §3

SMILES	IC50 [3]	IC50 ratio MAO A / MAO B [4]	IC50 [4]	fungicidal action [1]	bacteriostatic action [2]
Cc1cc(=O)oc2cc(OCc3cc(-c4ccccc4)no3)ccc12 [4-methyl-7-(3-phenylisoxazol-5-yl-methoxy)-coumarin]	–	–	–	little or no success	little or no success
Cc1c(C)c2ccc(OCc3cc(C4CCCCC4)no3)cc2oc1=O [Example 87, 7-(3-Cyclohexylisoxazol-5-yl)-methoxy-3,4-dimethylcoumarin]	> 10000 nM	> 700	14 nM	–	–
Cc1c(C)c2ccc(OCc3ccc(C(C)(C)C)s3)cc2oc1=O [Example 92, 7-(2-tert-Butylthiophen-5-yl)-methoxy-3,4-dimethylcoumarin]	> 10000 nM	> 1000	~10 nM	–	–
Cc1c(C)c2ccc(OCc3nc(C4CCCC4)no3)cc2oc1=O [Example 98]	> 10000 nM	> 11000	0.92 nM	–	–
Cc1c(C)c2ccc(OCc3cc(C4CCCCC4)no3)cc2oc1=O [Example 99, 3,4-Dimethyl-7-(3-cyclohexylisoxazol-5-yl)-methoxycoumarin]	> 10000 nM	> 1200	8.2 nM	–	–
Cc1c(C)c2cc(Cl)c(OCc3ccccn3)cc2oc1=O [Example 100, 6-Chloro-3,4-dimethyl-7-(2-pyridinyl)-methoxycoumarin]	> 10000 nM	> 13000	0.74 nM	–	–
Cc1nnc(COc2cc3oc(=O)c(Cl)c(C)c3cc2Cl)s1 [Example 101, 3,6-Dichloro-4-methyl-7-(5-methyl-1,3,4-thiadiazol-2-yl)-methoxycoumarin]	> 10000 nM	> 10000	1 nM	–	–
Cc1c(Cl)c(=O)oc2cc(OCc3csc(C(C)C)n3)c(Cl)cc12 [Example 103, 3,6-Dichloro-4-methyl-7-(2-isopropylthiazol-4-yl)-methoxycoumarin]	> 10000 nM	> 5500	1.8 nM	–	–

The next lines start with results.

IC50 [3]	IC50 ratio MAO A / MAO B [4]	IC50 [4]	SMILES	fungicidal action [1]	bacteriostatic action [2]
> 10000 nM	> 770	13 nM	Cc1c(C)c2ccc(OCc3ncnn3C(C)C)cc2oc1=O [Example 70, 7-(1-Isopropyl-1,2,4-triazol-5-yl)-methoxy-3,4-dimethylcoumarin hydrochloride]	–	–
~10000 nM	~ 2000	4.9 nM	Cc1c(C)c2ccc(OCc3cc(C(C)C)nn3C)cc2oc1=O [Example 72, 7-(3-Isopropyl-1-methylpyrazol-5-yl)-methoxy-3,4-dimethylcoumarin]	–	–
> 10000 nM	> 700	14 nM	Cc1c(C)c2ccc(OCc3cc(C)n(C)n3)cc2oc1=O [Example 73, 3,4-Dimethyl-7-(1,5-dimethylpyrazol-3-yl)-methoxycoumarin]	–	–
3200 nM	580	5.5 nM	Cc1c(C)c2ccc(OCc3csc(Cc4ccccc4)n3)cc2oc1=O [Example 74, 7-(2-Benzylthiazol-4-yl)-methoxy-3,4-dimethylcoumarin]	–	–
~10000 nM	~ 7000	–	Cc1c(C)c2ccc(OCc3csc(C(C)C)n3)cc2oc1=O [Example 75, 7-(2-Isopropylthiazol-4-yl)-methoxy-3,4-dimethylcoumarin]	–	–
> 10000 nM	> 7700	1.3 nM	Cc1c(C)c2ccc(OCc3cc(C4CCCC4)no3)cc2oc1=O [Example 78, 7-(3-Cyclopentylisoxazol-5-yl)-methoxy-3,4-dimethylcoumarin]	–	–
2900 nM	2400	1.2 nM	COC(C)c1cc(COc2ccc3c(C)c(C)c(=O)oc3c2)on1 (stereo not shown) [Example 79, 7-[3-(1-Methoxyethyl)-isoxazol-5-yl]-methoxy-3,4-dimethylcoumarin]	–	–
~10000 nM	~ 7100	1.4 nM	Cc1c(C)c2ccc(OCc3csc(C4CC4)n3)cc2oc1=O [Example 80, 7-(2-Cyclopropylthiazol-4-yl)-methoxy-3,4-dimethylcoumarin]	–	–
> 10000 nM	> 1100	9.1 nM	CCc1cc2c(C)c(C)c(=O)oc2cc1OCc1cc(C(C)C)n(C)n1 [Example 84, 6-Ethyl-7-(5-isopropyl-1-methylpyrazol-3-yl)-methoxy-3,4-dimethylcoumarin]	–	–
> 10000 nM	> 1700	6.9 nM	CCc1cc2c(C)c(C)c(=O)oc2cc1OCc1nnc(C)s1 [Example 85, 6-Ethyl-3,4-dimethyl-7-(2-methyl-1,3,4-thiadiazol-5-yl)-methoxycoumarin]	–	–
~10000 nM	~ 8300	1.2 nM	Cc1c(C)c2ccc(OCc3nnc(C4CC4)s3)cc2oc1=O [Example 94, 3,4-Dimethyl-7-(2-cyclopropyl-1,3,4-thiadiazol-5yl)-methoxycoumarin]	–	–
~20000 nM	~ 32000	0.61 nM	Cc1c(C)c2ccc(OCc3cc(C4(C)CC4)no3)cc2oc1=O [Example 96]	–	–
~5000 nM	~ 1400	3.6 nM	Cc1c(C)c2ccc(OCc3cc(C4CCOC4)no3)cc2oc1=O (stereo not shown) [Example 97, 3,4-Dimethyl-7-[3-(tetrahydrofuran-3-yl)-isoxazol-5-yl]-methoxycoumarin]	–	–
